Data: patent US10785975B2, “Water and feed antimicrobial preservative” (priority 2009, dated 2020)

System: Salmonella typhimurium
Assay: Example 1: effect of pH buffering of acetic and propionic acid on antimicrobial activity in water
Assay type: cell-based
Details: for MIC at 4 Hr / MIC at 24 HR: Minimum Inhibitory Concentrations, by linear regression over 0.025-0.1% acid solutions
Procedure: Propionic and acetic acids were buffered with ammonium hydroxide to pHs ranging from 1 to 7. Acid contents of the buffered solutions were determined by a weight to weight ratio calculation to obtain the same acid content in the test solutions. […] The pHs of the deionized water solutions were recorded and any problems with solubility noted.
100 ul of a nutrient broth culture of Salmonella typhimurium was added to each dilution tube. After addition, tubes were vortexed and allowed to stand. At 4 and 24 hours after addition of the inoculum, 100 ul of the solution was plated on Standard Plate agar (triplicate plates). Plates were incubated at 37° C. for 24 hours prior to enumeration. The minimum effective dose of each acid was determined by linear regression.

[1] = Product Conc. 0.025 (% acid solution in water)
[2] = Product Conc. 0.05 (% acid solution in water)
[3] = Product Conc. 0.075 (% acid solution in water)
[4] = Product Conc. 0.1 (% acid solution in water)

Compound	Salmonella at time Interval 4 hr % reduction [1] [%]	Salmonella at time Interval 4 hr cfu/g [1] [cfu/g]	Salmonella at time Interval 24 hr % reduction [1] [%]	Salmonella at time Interval 24 hr cfu/g [1] [cfu/g]	Salmonella at time Interval 4 hr % reduction [2] [%]	Salmonella at time Interval 4 hr cfu/g [2] [cfu/g]	Salmonella at time Interval 24 hr % reduction [2] [%]	Salmonella at time Interval 24 hr cfu/g [2] [cfu/g]	Salmonella at time Interval 4 hr % reduction [3] [%]	Salmonella at time Interval 4 hr cfu/g [3] [cfu/g]	Salmonella at time Interval 24 hr % reduction [3] [%]	Salmonella at time Interval 24 hr cfu/g [3] [cfu/g]	Salmonella at time Interval 4 hr % reduction [4] [%]	Salmonella at time Interval 4 hr cfu/g [4] [cfu/g]	Salmonella at time Interval 24 hr % reduction [4] [%]	Salmonella at time Interval 24 hr cfu/g [4] [cfu/g]	also measured
CCC(=O)O [Propionic pH 6, Propionic acid]	0	>1505	0	1450	7	1400	10	1067	0	>1505	0	1233	0	1700	0	1333	
CC(=O)O [Acetic pH 2, Acetic acid]	39	920	86	170	46	817	96	50	55	673	98	20	55	670	99	17	MIC at 4 Hr (pH 2): 0.142; MIC at 24 HR (pH 2): 0.067
CCC(=O)O [Propionic pH 7, Propionic acid]	0	>1505	0	1667	0	1700	0	1367	0	>1505	0	1700	0	1600	0	1367	
CCC(=O)O [Propionic pH 5, Propionic acid]	0	>1505	33	793	7	1400	20	943	22	1167	47	630	46	817	53	557	MIC at 4 Hr (pH 5): 0.170; MIC at 24 HR (pH 5): 0.165
CC(=O)O [Acetic pH 5, Acetic acid]	16	1267	16	993	0	1533	26	873	9	1367	32	805	14	1300	49	597	MIC at 4 Hr (pH 5): 0.238; MIC at 24 HR (pH 5): 0.210
CCC(=O)O [Propionic pH 4, Propionic acid]	9	1367	48	615	20	1200	75	293	37	943	84	187	22		86	163	MIC at 4 Hr (pH 4): 0.237; MIC at 24 HR (pH 4): 0.091
CC(=O)O [Acetic pH 1, Acetic acid]	41	883	91	107	50	750	99	7	59	617	99	17	65	520	99	7	MIC at 24 HR (pH 1): 0.065
CC(=O)O [Acetic pH 6, Acetic acid]	0	1500	1	1167	0	1767	0	1400	0	1667	0	1400	0	1633	0	1433	
CCC(=O)O [Propionic pH 2, Propionic acid]	29	1067	94	70	51	733	99	10	68	477	99	13	75	380	99	7	MIC at 4 Hr (pH 2): 0.120; MIC at 24 HR (pH 2): 0.064
CC(=O)O [Acetic pH 7, Acetic acid]	0	1567	0		0	1600	0	1433	2	1467	0	1433	0	1567	0		
CC(=O)O [Acetic pH 4, Acetic acid]	29	1067	54	543	22	1167	66	407	27	1097	78	263	22	1167	84	183	MIC at 4 Hr (pH 4): 0.207; MIC at 24 HR (pH 4): 0.096
